Counter-ions that a name gives are not always drawn.
With `COc1ccc(-c2oc3ccc(NC(C)=N)cc3c(=O)c2O)cc1` (as salt: hydrochloride) (hydrate or solvate) [Example 12, 2-(4-methoxyphenyl)-3-hydroxy-6-[(1-iminoethyl)amino]-4H-1-benzopyran-4-one hydrochloride monohydrate] as the compound, how does the melting point read?
The melting point was 260.1 to 261.1 °C.

For `CC(=N)Nc1ccc2oc(-c3ccc4c(c3)CCO4)c(O)c(=O)c2c1` (as salt: hydrochloride) [Example 15, 2-(dihydrobenzofuran-5-yl)-3-hydroxy-6-[(1-iminoethyl)amino]-4H-1-benzopyran-4-one hydrochloride], which melting point is on record?
Its melting point is 291 to 292 °C.

For `N=C(CC1CC1)Nc1ccc2oc(-c3ccc(-n4ccnc4)cc3)c(O)c(=O)c2c1` (as salt: hydrochloride) (hydrate or solvate) [Example 6, 2-[(4-imidazol-1-yl)-phenyl]-3-hydroxy-6-[(1-iminoethyl-2-cyclopropyl)amino]-4H-1-benzopyran-4-one dihydrochloride monohydrate], which melting point is on record?
Its melting point is 249.1 to 251.1 °C.

For `N=C(CC1CC1)Nc1ccc2oc(-c3ccc(O)cc3)c(O)c(=O)c2c1` (as salt: hydrochloride) [Example 11, 2-(4-hydroxyphenyl-3-hydroxy-6-[(1-iminoethyl-2-cyclopropyl)amino]-4H-1-benzopyran-4-one hydrochloride], which melting point is on record?
Its melting point is 281 to 281.5 °C.

Which melting point does the source give for `CC(=N)Nc1ccc2oc(-c3ccc4c(c3)OCO4)c(O)c(=O)c2c1` (as salt: hydrochloride) [Example 16, 2-(benzo[1,3]dioxol-5-yl)-3-hydroxy-6-[(1-iminoethyl)amino]-4H-1-benzopyran-4-one hydrochloride] here?
The melting point was 262.3 to 262.9 °C.

For `CC(=N)Nc1ccc2oc(-c3ccc(O)nc3)c(O)c(=O)c2c1` (as salt: hydrochloride) [Example 21, 2-(6-hydroxypyridin-3-yl)-3-hydroxy-6-[(1-iminoethyl)amino]-4H-1-benzopyran-4-one hydrochloride], which melting point is on record?
Its melting point is 284.5 to 286 °C.

Which melting point does the source give for `CC(=N)Nc1ccc2oc(-c3cccc(-n4ccnc4)c3)c(O)c(=O)c2c1` (as salt: hydrochloride) [Example 8, 2-[(3-(imidazol-1-yl)-phenyl]-3-hydroxy-6-[(1-iminoethyl)amino]-4H-1-benzopyran-4-one dihydrochloride] here?
Its melting point is 281 to 281.5 °C.
